Results on 20 compounds are retold here after patent US20240327417A1, “HETEROCYCLIC COMPOUNDS” (BeiGene Switzerland GmbH, priority 2021, published 2024).

Assay [1] has as its target T1, Full length DGKζ (in-house protein M1-V929) (Homo sapiens, UniProt Q13574).
T1 construct: His (N); TEV cleavage site (N); made in house; host or cells: Sf9 insect cells (baculovirus, Bac-to-Bac)
Nature of the assay: Biochemical DGK IC50 assay (ADP-Glo, lipid micelle substrate), DGKζ. The settings on record: 0.5 nM enzyme, 140 μM ATP, 80 μM DAG, 1 hour preincubation, 1 hour reaction, room temperature, read-out: IC50s for DGKζ. Summed up:
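In-house full-length human DGKζ, baculovirus-expressed in Sf9 cells, was assayed with a DAG/PS lipid micelle substrate at room temperature. Buffer was 50 mM HEPES, 10 mM MgCl2, 0.01% BSA, 0.1 mM Na3VO4, 0.005% Tween-20, 0.01 mM CaCl2, with final compound 1.55˜10000 nM or 23.3˜150000 nM.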

Assay [2] deals with T2, Full length DGKα (D21-10BG, SignalChem) (Homo sapiens, UniProt P23743).
T2 construct: Full length DGKα (D21-10BG, SignalChem); purchased SignalChem D21-10BG
Nature of the assay: Biochemical DGK IC50 assay (ADP-Glo, lipid micelle substrate), DGKα. The note with it: 7.5 nM enzyme, 140 μM ATP, 80 μM DAG, 1 hour preincubation, 1 hour reaction, room temperature, read-out: IC50s for DGKα. In a few lines: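 Full-length enzyme was assayed by ADP-Glo on DAG/PS lipid micelles at room temperature in HEPES/MgCl2/CaCl2 buffer with BSA, Na3VO4 and Tween-20, using a 1 h reaction and luminescence read-out.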
In general terms: ADP-Glo first removes unused ATP, then detects ADP through luciferase.

Molecules are shown by their SMILES.

T1 sequence (Q13574 1-929 isoform Q13574-4): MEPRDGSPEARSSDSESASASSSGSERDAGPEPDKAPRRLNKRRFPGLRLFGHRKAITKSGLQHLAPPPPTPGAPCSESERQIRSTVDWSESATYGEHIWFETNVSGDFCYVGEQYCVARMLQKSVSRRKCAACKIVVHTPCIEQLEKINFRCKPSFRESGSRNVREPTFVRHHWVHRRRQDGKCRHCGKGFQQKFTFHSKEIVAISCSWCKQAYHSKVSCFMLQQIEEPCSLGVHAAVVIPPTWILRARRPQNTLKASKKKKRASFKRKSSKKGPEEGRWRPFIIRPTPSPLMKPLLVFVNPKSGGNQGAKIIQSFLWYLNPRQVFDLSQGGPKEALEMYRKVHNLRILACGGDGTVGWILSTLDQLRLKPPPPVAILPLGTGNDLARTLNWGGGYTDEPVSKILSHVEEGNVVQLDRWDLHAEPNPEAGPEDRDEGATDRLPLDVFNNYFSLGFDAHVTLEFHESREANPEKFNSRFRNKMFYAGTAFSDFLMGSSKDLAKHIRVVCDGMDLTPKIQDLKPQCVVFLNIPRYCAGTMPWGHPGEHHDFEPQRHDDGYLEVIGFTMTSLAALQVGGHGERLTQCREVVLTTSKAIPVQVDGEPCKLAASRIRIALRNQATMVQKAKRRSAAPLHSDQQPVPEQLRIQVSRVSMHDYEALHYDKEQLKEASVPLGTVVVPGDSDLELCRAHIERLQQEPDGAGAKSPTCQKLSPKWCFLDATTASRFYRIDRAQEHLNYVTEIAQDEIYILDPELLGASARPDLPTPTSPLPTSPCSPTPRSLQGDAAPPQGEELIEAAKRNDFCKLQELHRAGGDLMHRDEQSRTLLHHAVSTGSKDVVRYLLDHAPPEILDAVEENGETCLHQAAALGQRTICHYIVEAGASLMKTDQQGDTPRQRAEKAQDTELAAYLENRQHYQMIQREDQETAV
T2 sequence (P23743 whole entry): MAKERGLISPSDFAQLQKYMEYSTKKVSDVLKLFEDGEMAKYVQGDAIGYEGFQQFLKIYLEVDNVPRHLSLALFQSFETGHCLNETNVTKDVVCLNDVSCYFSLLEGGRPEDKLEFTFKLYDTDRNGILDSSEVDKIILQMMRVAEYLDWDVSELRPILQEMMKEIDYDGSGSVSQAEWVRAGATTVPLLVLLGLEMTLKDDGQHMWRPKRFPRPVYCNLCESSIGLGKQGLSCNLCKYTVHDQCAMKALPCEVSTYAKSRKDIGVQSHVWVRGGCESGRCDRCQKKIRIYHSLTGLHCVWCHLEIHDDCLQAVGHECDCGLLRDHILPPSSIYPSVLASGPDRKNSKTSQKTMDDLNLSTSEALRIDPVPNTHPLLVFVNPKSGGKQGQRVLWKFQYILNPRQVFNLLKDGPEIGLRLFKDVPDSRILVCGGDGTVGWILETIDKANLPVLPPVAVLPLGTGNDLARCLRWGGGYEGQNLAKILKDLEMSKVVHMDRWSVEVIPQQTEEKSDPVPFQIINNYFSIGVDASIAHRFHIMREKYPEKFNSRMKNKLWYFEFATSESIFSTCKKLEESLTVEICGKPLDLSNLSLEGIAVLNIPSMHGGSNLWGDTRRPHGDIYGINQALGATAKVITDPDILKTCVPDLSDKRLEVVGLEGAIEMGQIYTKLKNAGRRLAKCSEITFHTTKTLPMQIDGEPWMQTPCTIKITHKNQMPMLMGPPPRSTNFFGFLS

Consider `CC[C@@H]1CN(c2cc(=O)n(C)n3cc(CC#N)nc23)[C@@H](CC)CN1Cc1ccc(OC(F)(F)F)cc1` [Compound A36, 2-(8-((2S,5R)-2,5-diethyl-4-(4-(trifluoromethoxy)benzyl)piperazin-1-yl)-5-methyl-6-oxo-5,6-dihydroimidazo[1,2-b]pyridazin-2-yl)acetonitrile], for which the IC50 was determined as 0.241 µM in assay [1] and 0.014 µM in assay [2].
Consider `CC[C@H]1CN(C(C)c2ccc(C(C)(C)C#N)nc2)[C@H](CC)CN1c1cc(=O)n(C)n2cc(CC#N)nc12` (stereo partly drawn) [Compound A40, 2-(5-(1-((2R,5S)-4-(2-(cyanomethyl)-5-methyl-6-oxo-5,6-dihydroimidazo[1,2-b]pyridazin-8-yl)-2,5-diethylpiperazin-1-yl)ethyl)pyridin-2-yl)-2-methylpropanenitrile], for which the figures for the IC50 in assay [1] and in assay [2] were 0.124 µM and 0.297 µM, respectively.
Consider `CC[C@H]1CN(C(C)c2ccc(C(C)(C)O)nc2)[C@H](CC)CN1c1cc(=O)n(C)n2cc(CC#N)nc12` (stereo partly drawn) [Compound A41, 2-(8-((2S,5R)-2,5-diethyl-4-(1-(6-(2-hydroxypropan-2-yl)pyridin-3-yl)ethyl)piperazin-1-yl)-5-methyl-6-oxo-5,6-dihydroimidazo[1,2-b]pyridazin-2-yl)acetonitrile], for which the IC50 in assay [1] was determined as 0.844 µM; in assay [2] it was 1.27 µM.
Regarding `CC[C@H]1CN(C(C)c2ccc(OC)cn2)[C@H](CC)CN1c1cc(=O)n(C)n2cc(CC#N)nc12` (stereo partly drawn) [Compound A48, 2-(8-((2S,5R)-2,5-diethyl-4-(1-(5-methoxypyridin-2-yl)ethyl)piperazin-1-yl)-5-methyl-6-oxo-5,6-dihydroimidazo[1,2-b]pyridazin-2-yl)acetonitrile], the IC50 in assay [1] is 0.445 µM; in assay [2] it was 0.03 µM.
As for `CC[C@H]1CN(C(C)c2ccc(OC(C)C)cc2)[C@H](CC)CN1c1cc(=O)n(C)n2cc(CC#N)nc12` (stereo partly drawn) [Compound A51, 2-(8-((2S,5R)-2,5-diethyl-4-(1-(4-isopropoxyphenyl)ethyl)piperazin-1-yl)-5-methyl-6-oxo-5,6-dihydroimidazo[1,2-b]pyridazin-2-yl)acetonitrile], the IC50 in assay [1] was found to be 0.284 µM; in assay [2], 0.09 µM.
On the same counts, the results for `CC[C@H]1CN(C(C)c2ccc(C3CC3)cn2)[C@H](CC)CN1c1cc(=O)n(C)n2cc(CC#N)nc12` (stereo partly drawn) [Compound A52, 2-(8-((2S,5R)-4-(1-(5-cyclopropylpyridin-2-yl)ethyl)-2,5-diethylpiperazin-1-yl)-5-methyl-6-oxo-5,6-dihydroimidazo[1,2-b]pyridazin-2-yl)acetonitrile] are 0.075 µM and 0.018 µM.
On the same counts, the results for `CC[C@H]1CN(C(C)c2ccc3ncsc3c2)[C@H](CC)CN1c1cc(=O)n(C)n2cc(CC#N)nc12` (stereo partly drawn) [Compound A53, 2-(8-((2S,5R)-4-(1-(benzo[d]thiazol-6-yl)ethyl)-2,5-diethylpiperazin-1-yl)-5-methyl-6-oxo-5,6-dihydroimidazo[1,2-b]pyridazin-2-yl)acetonitrile] are 0.0065 µM and 0.024 µM.
`CC[C@@H]1CN(c2cc(=O)n(C)n3cc(CC#N)nc23)[C@@H](C)CN1C(C)c1ccc2nc(C)sc2c1` (stereo partly drawn) [Compound A55, 2-(8-((2S,5R)-5-ethyl-2-methyl-4-(1-(2-methylbenzo[d]thiazol-6-yl)ethyl)piperazin-1-yl)-5-methyl-6-oxo-5,6-dihydroimidazo[1,2-b]pyridazin-2-yl)acetonitrile]: the values for the IC50 in assay [1] and in assay [2] were 0.108 µM and 0.789 µM, respectively.
For the compound `CC[C@H]1CN(C(C)c2ccc3scnc3c2)[C@H](CC)CN1c1cc(=O)n(C)n2cc(CC#N)nc12` (stereo partly drawn) [Compound A65, 2-(8-((2S,5R)-4-(1-(benzo[d]thiazol-5-yl)ethyl)-2,5-diethylpiperazin-1-yl)-5-methyl-6-oxo-5,6-dihydroimidazo[1,2-b]pyridazin-2-yl)acetonitrile], the IC50 is 0.018 µM in assay [1] and 0.036 µM in assay [2].
Regarding `CC#CCc1cn2c(n1)c(N1C[C@@H](CC)N(C(C)c3ccc4nc(C)sc4c3)C[C@@H]1C)cc(=O)n2C` (stereo partly drawn) [Compound A69, 2-(but-2-yn-1-yl)-8-((2S,5R)-5-ethyl-2-methyl-4-(1-(2-methylbenzo[d]thiazol-6-yl)ethyl)piperazin-1-yl)-5-methylimidazo[1,2-b]pyridazin-6(5H)-one], the IC50 in assay [1] was 1.44 µM; in assay [2] it was 0.263 µM.
`CC[C@H]1CN(C(C)c2ccc3c(c2)OCO3)[C@H](CC)CN1c1cc(=O)n(C)n2cc(CC#N)nc12` (stereo partly drawn) [Compound A71, 2-(8-((2S,5R)-4-(1-(benzo[d][1,3]dioxol-5-yl)ethyl)-2,5-diethylpiperazin-1-yl)-5-methyl-6-oxo-5,6-dihydroimidazo[1,2-b]pyridazin-2-yl)acetonitrile]: the IC50 in assay [1] was 0.061 µM; in assay [2], 0.066 µM.
On the same counts, the results for `CC[C@H]1CN(C(C)c2ccc(OC)cc2)[C@H](CC)CN1c1cc(=O)n(C)n2cc(CC#N)nc12` (stereo partly drawn) [Compound A72, 2-(8-((2S,5R)-2,5-diethyl-4-(1-(4-methoxyphenyl)ethyl)piperazin-1-yl)-5-methyl-6-oxo-5,6-dihydroimidazo[1,2-b]pyridazin-2-yl)acetonitrile] are 0.076 µM and 0.023 µM.
On to `CC[C@H]1CN(C(C)c2ccc3nc(C)sc3n2)[C@H](CC)CN1c1c(Br)c(=O)n(C)n2cc(CC#N)nc12` (stereo partly drawn) [Compound A83, 2-(7-bromo-8-((2S,5R)-2,5-diethyl-4-(1-(2-methylthiazolo[5,4-b]pyridin-5-yl)ethyl)piperazin-1-yl)-5-methyl-6-oxo-5,6-dihydroimidazo[1,2-b]pyridazin-2-yl)acetonitrile], for which the figures for the IC50 in assay [1] and in assay [2] were more than 10 µM and 42.6 µM, respectively.
Regarding `CC[C@@H]1CN(c2cc(=O)n(C)n3cc(CC#N)nc23)[C@@H](C)CN1C(C)c1ccc2ccsc2n1` (stereo partly drawn) [Compound A86, 2-(8-((2S,5R)-5-ethyl-2-methyl-4-(1-(thieno[2,3-b]pyridin-6-yl)ethyl)piperazin-1-yl)-5-methyl-6-oxo-5,6-dihydroimidazo[1,2-b]pyridazin-2-yl)acetonitrile], the IC50 in assay [1] amounted to 0.036 µM; in assay [2], 0.018 µM.
As to `CC[C@@H]1CN(c2cc(=O)n(C)n3cc(CC#N)nc23)[C@@H](C)CN1C(C)c1ccc2cc(C)sc2n1` (stereo partly drawn) [Compound A87, 2-(8-((2S,5R)-5-ethyl-2-methyl-4-(1-(2-methylthieno[2,3-b]pyridin-6-yl)ethyl)piperazin-1-yl)-5-methyl-6-oxo-5,6-dihydroimidazo[1,2-b]pyridazin-2-yl)acetonitrile], the IC50 in assay [1] worked out at 0.011 µM; in assay [2], 0.112 µM.
Consider `CC[C@H]1CN(C(C)c2ccc(C3(F)CC3)cc2)[C@H](CC)CN1c1cc(=O)n(C)n2cc(CC#N)nc12` (stereo partly drawn) [Compound A88, 2-(8-((2S,5R)-2,5-diethyl-4-(1-(4-(1-fluorocyclopropyl)phenyl)ethyl)piperazin-1-yl)-5-methyl-6-oxo-5,6-dihydroimidazo[1,2-b]pyridazin-2-yl)acetonitrile], for which the values for the IC50 in assay [1] and in assay [2] were 0.039 µM and 0.072 µM, respectively.
As for `CC[C@H]1CN(C(CCOC)c2ccc3nc(C)sc3c2)[C@H](C)CN1c1cc(=O)n(C)n2cc(CC#N)nc12` (stereo partly drawn) [Compound A103, 2-(8-((2S,5R)-2-ethyl-4-(3-methoxy-1-(2-methylbenzo[d]thiazol-6-yl)propyl)-5-methylpiperazin-1-yl)-5-methyl-6-oxo-5,6-dihydroimidazo[1,2-b]pyridazin-2-yl)acetonitrile], the figures for the IC50 in assay [1] and in assay [2] were 0.138 µM and 0.701 µM, respectively.
`CC[C@@H]1CN(c2cc(=O)n(C)n3cc(CC#N)nc23)[C@@H](C)CN1C(C)c1ccc2cc(F)sc2n1` (stereo partly drawn) [Compound A106, 2-(8-((2S,5R)-5-ethyl-4-(1-(2-fluorothieno[2,3-b]pyridin-6-yl)ethyl)-2-methylpiperazin-1-yl)-5-methyl-6-oxo-5,6-dihydroimidazo[1,2-b]pyridazin-2-yl)acetonitrile]: the figures for the IC50 in assay [1] and in assay [2] were 0.096 µM and 0.026 µM, respectively.
For the compound `CC[C@H]1CN(C(C)c2ccc3nc(C)sc3c2)[C@H](CC)CN1c1c(C#N)c(=O)n(C)n2cc(CC#N)nc12` (stereo partly drawn) [Compound A111, 2-(cyanomethyl)-8-((2S,5R)-2,5-diethyl-4-(1-(2-methylbenzo[d]thiazol-6-yl)ethyl)piperazin-1-yl)-5-methyl-6-oxo-5,6-dihydroimidazo[1,2-b]pyridazine-7-carbonitrile], the results for the IC50 in assay [1] and in assay [2] were 0.132 µM and 0.575 µM, respectively.
Turning to `CC[C@H]1CN(C(C)c2ccc3ncsc3n2)[C@H](CC)CN1c1c(C#N)c(=O)n(C)n2cc(CC#N)nc12` (stereo partly drawn) [Compound A114, 2-(cyanomethyl)-8-((2S,5R)-2,5-diethyl-4-(1-(thiazolo[5,4-b]pyridin-5-yl)ethyl)piperazin-1-yl)-5-methyl-6-oxo-5,6-dihydroimidazo[1,2-b]pyridazine-7-carbonitrile], the IC50 in assay [1] stood at 0.127 µM; in assay [2] it was 0.068 µM.
